The values that follow come from article PMC8156816, “Antibacterial Activities of Homemade Matrices Miming Essential Oils Compared to Commercial Ones” (Antibiotics, 2021).

Data set [1] has as its system Staphylococcus aureus LMG 21674 (FUSR). Nature of the data set: Direct antibacterial activity, broth microdilution MIC. Format: cell-based. To be noted: for MIC: Staphylococcus aureus. The procedure:
(§1) Two types of antibacterial assays were employed as previously described. All the samples, essential oils, mixtures of essential oil types, and individual compounds were evaluated alone (direct activity) or in association with an antibiotic (indirect activity) at a sub-MIC concentration (non-active concentration). The tested strains were the Gram-positive Staphylococcus aureus LMG 15,975 (methicillin-resistant S. aureus, abbreviated as MRSA) and S. aureus LMG 21,674 (fusidic-acid-resistant S. aureus, abbreviated as FUSR). The chosen antibiotics were penicillin V and fusidic acid. The broth microdilution method in 96-well plates was used to determine the minimum inhibitory concentration (MIC). For the direct activity, samples were serially diluted to achieve a concentration ranging from 1 mg/mL to 2 μg/mL. For the indirect activity, the antibiotic was first serially diluted (from 64 to 7.103 μg/mL) and the samples were subsequently added to the wells at the defined sub-MIC concentration. These ranges were chosen because above them the sample is considered as non-active. For both assays, the inoculum was prepared from a suspension of 24-hour colonies to obtain a turbidity of 0.5 McFarland and added to the wells to achieve a final concentration of 5 × 10^5 CFU/mL. Plates were then incubated at 37 °C overnight and MTT (0.8 mg/mL) was used to determine the MIC by naked eye. A growth (Mueller–Hinton broth medium with inoculum) and a non-growth (only MHB) control were carried out. In addition, antibiotics were also always tested alone as positive controls.

In data set [2] the test system is Staphylococcus aureus LMG 15975 (MRSA). The description is as above. Format: cell-based. To be noted: read-out: Direct Activity MRSA MIC. The method, then:
as §1

The subject of the next data set is human lung cells. Conditions: cited from earlier work.
Data set [3] has as its system Staphylococcus aureus LMG 21674 (FUSR). The experiment in a line: Indirect antibacterial activity in association with penicillin V. Format: cell-based. Conditions: sample at sub-MIC, versus penicillin V alone (16 μg/mL).
Source text: as §1, with “All the samples, essential oils, mixtures of essential oil types, and individual compounds were evaluated alone (direct activity) or in association with an antibiotic (indirect activity) at a sub-MIC concentration (non-active concentration).” left out
(§2) The indirect activity presented in this study made use of a different method to test synergistic effects between two compounds. The difference with the traditional checkerboard method was that compound A (antibiotic) was serially diluted and compound B (essential oil/pure metabolite or homemade mixture) was added at a fix sub-MIC concentration, determined under the cytotoxic activity threshold. […] An indirect activity is observed when the MIC of the association is lower than the MIC of the antibiotic alone.

The subject of data set [4] is Staphylococcus aureus LMG 15975 (MRSA). Described as above. Conditions: sample at sub-MIC, versus penicillin V alone (4 μg/mL). Format: cell-based.
Source text: as §1, with “All the samples, essential oils, mixtures of essential oil types, and individual compounds were evaluated alone (direct activity) or in association with an antibiotic (indirect activity) at a sub-MIC concentration (non-active concentration).” left out
as §2

Data set [5] can be described thus: Cytotoxic activity, colorimetric MTT assay on keratinocytes. The class given is cell-based. Conditions: human, HaCaT keratinocyte cells, interpretation proposed by Döll-Boscardin et al. The method, then:
The effect of each essential oil on the global growth of the cell line was investigated through a colorimetric MTT assay as previously described. Briefly, human keratinocytes cells (HaCaT) were grown in RPMI supplemented with 10% fetal bovine serum and 0.5% penicillin-streptomycin and seeded at a density of 10 000 cells/mL in 96-well plates. […] The contact time of incubation was 72 h. Finally, after 3 to 5 hours of incubation with the MTT (0.5 mg/mL), the plates were centrifuged at 1200 rpm for 5 min, the supernatant was discarded, and the formazan crystals formed dissolved in DMSO. A spectrophotometer (680XR, BioRad, Hercules, CA, USA) was used to measure the absorbance (at 570 and 630 nm), which can be directly correlated to the number of viable cells (cell viability (% RC) = (absorbance of treated cells/absorbance of control) × 100).

The next data set relates to MRSA strains. To be noted: same strain and other MRSA strains; cited from earlier work.
Data set [6] relates to green monkey kidney, mouse fibroblast, human retinal ganglion, and human colon fibroblast cell lines. To be noted: cited from earlier work.
The next data set concerns MSSA (ATCC 29,213). Further details: method as in PMID 32629822. Conditions: cited from earlier work.
In data set [7] the test system is S. aureus ATCC 25923 (MSSA). Further details: method as in PMID 16619365. To be noted: cited from earlier work.
For another data set, the system named is S. aureus MTCC 7405. On the set-up: method as in Dahham et al. (2015). To be noted: ref Dahham et al. (2015); cited from earlier work.
The mark [8] stands for this setting: LMG21674, sample alone, broth microdilution, median, read-out: Direct Activity FUSR MIC.
The mark [9] stands for this setting: sample alone, broth microdilution, median.

In brackets after ≈: the same amount, converted by molar mass. Like-named read-outs stand apart in the source and are kept apart here.

Turning to `Cc1ccc(C(C)C)cc1O` [Carvacrol], the MIC in data set [1] (LMG21674, read-out: Direct Activity FUSR MIC) is 62.5 µg/mL (≈ 416 µM); in [2], 250 µg/mL (≈ 1660 µM). Moreover, the cytotoxicity entry in the data set on human lung cells is “low cytotoxicity”. For the same molecule, the “decrease of the MIC of penicillin V on FUSR S. aureus” value in [3] was 4 fold. In addition, the “decrease of the MIC of penicillin V on MRSA” value (from here on “decrease of the MIC … on MRSA”) in data set [4] amounted to 4 fold.
For `C=CC(C)(O)CCC=C(C)C` (stereo not shown) [Linalool], the MIC in data set [1] (setting [8]) and in data set [2] (setting [9]) was more than 1000 µg/mL throughout. Further, the IC50 at 72 h in data set [5] is less than 31.3 µg/mL.
With `CC1(C)S[C@@H]2[C@H](NC(=O)COc3ccccc3)C(=O)N2[C@H]1C(=O)O` [PEN V, penicillin V], the MIC in [1] (setting [8]) was 16 µg/mL (≈ 45.7 µM); in data set [2] (setting [9]), 4 µg/mL (≈ 11.4 µM).
Consider `Cc1ccc(C(C)C)c(O)c1` [Thymol], for which the MIC in data set [1] (setting [8]) is 125 µg/mL (≈ 832 µM); in data set [2] (setting [9]), 250 µg/mL (≈ 1660 µM); in the data set with MRSA strains, “around 600 μg/mL”. The cytotoxicity entry in the data set with human lung cells was “low cytotoxicity”. Further, the “decrease of the MIC … on MRSA” value in data set [4] worked out at 4 fold.
Take `CC(=O)O[C@H]1C[C@@]2(C)[C@@H](C[C@@H](O)[C@H]3[C@@]4(C)CC[C@@H](O)[C@@H](C)[C@@H]4CC[C@@]32C)/C1=C(\CCC=C(C)C)C(=O)O` [fusidic acid]: the MIC in [1] (setting [8]) worked out at 256 µg/mL (≈ 495 µM).
Consider `Cc1ccc(C(C)C)cc1` [p-cymene], for which the MIC in data set [1] (setting [8]) and in data set [2] (setting [9]) was more than 1000 µg/mL in each case. Besides, the “Direct Activity FUSR MIC” value in [1] (setting [9]) is listed as “No direct activity”.
On to `C=C1CC/C=C(\C)CC[C@@H]2[C@@H]1CC2(C)C` [β-caryophyllene], for which the MIC was 31.3 µg/mL (≈ 153 µM) in data set [1] (setting [8]), more than 1000 µg/mL in data set [2] (setting [9]), 313 µg/mL (≈ 1530 µM) in the data set with MSSA (ATCC 29,213) and 5.1 µg/mL (≈ 25 µM) in data set [7]. Also, the cytotoxic effect entry in data set [6] is given as “low cytotoxic effect”. Besides, the “decrease of the MIC of penicillin V on FUSR S. aureus” value in data set [3] is 267 fold. For the same molecule, the “decrease of the MIC … on MRSA” value in data set [4] was 4 fold. Further, in the data set with S. aureus MTCC 7405, the “MIC compared with kanamycin” value is given as “a better MIC on S. aureus MTCC 7405 than the kanamycin”.
Take `C=CC(=C)CCC=C(C)C` [β-myrcene]: the MIC in data set [1] (setting [8]) and in data set [2] (setting [9]) was more than 1000 µg/mL in each case.
In the case of `C=C1CCC2CC1C2(C)C` (stereo not drawn) [β-pinene], the values for the MIC in data set [1] (setting [8]) and in data set [2] (setting [9]) were 250 µg/mL (≈ 1840 µM) and more than 1000 µg/mL, respectively.
As to `CC1=CCC(C(C)C)=CC1` [γ-terpinene], the MIC in data set [1] (setting [8]) and in [2] (setting [9]) was more than 1000 µg/mL throughout. Further, the “Direct Activity FUSR MIC” value in [1] (setting [9]) is reported as “No direct activity”.
